We go through 22 compounds from patent publication US8859535B2, “Hydroxy substituted isoquinolinone derivatives” (Novartis AG, priority 2011, dated 2014).

Experiment [1] has as its target T1, human MDM2 protein (amino acids 2-188) (Homo sapiens, UniProt Q00987).
T1 construct: human MDM2 protein (amino acids 2-188); made in house
The experiment can be described thus: p53-MDM2 TR-FRET assay (p53-MDM2 Assay 1). It is filed as binding. To be noted: 1.25 nM MDM2-biotinylated, 10 nM Cy5-p53 peptide; read-out: IC50 (μM) of p53-Hdm2 inhibition (TR-FRET) Assay 1. An outline of the steps:
(§1)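 Peptide displacement read as 665/620 nm TR-FRET ratio (excitation 340 nm) after 15 min room temperature with 10 nM Cy5-p53 aa18-26, following 15 min preincubation of Eu-streptavidin (0.625 nM) with biotinylated MDM4 aa 2-185 (2.5 nM) or MDM2 aa 2-188 (1.25 nM); IC50 curve-fitted. MDM2 Assay 2: MDM2 and Eu-streptavidin each 0.1 nM.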
A general note: Time-resolved FRET reads energy transfer from a long-lived donor to a nearby acceptor.

The target in experiment [2] is T2, human MDM4 protein (amino acids 2-185) (Homo sapiens, UniProt O15151).
T2 construct: human MDM4 protein (amino acids 2-185); made in house
T2 sequence (O15151 2-185): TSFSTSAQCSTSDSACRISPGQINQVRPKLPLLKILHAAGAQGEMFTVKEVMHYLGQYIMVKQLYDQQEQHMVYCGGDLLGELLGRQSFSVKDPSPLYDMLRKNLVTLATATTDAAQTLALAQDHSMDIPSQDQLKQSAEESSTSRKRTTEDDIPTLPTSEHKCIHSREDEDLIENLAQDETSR
The experiment can be described thus: p53-MDM4 TR-FRET assay (p53-MDM4 Assay 1). In kind it is binding. The conditions noted are these: 2.5 nM MDM4-biotinylated, 10 nM Cy5-p53 peptide; read-out: IC50 (μM) of p53-Hdm4 inhibition (TR-FRET) Assay 1. The method in brief:
as §1

The structures appear in SMILES notation.

T1 sequence (Q00987 2-188): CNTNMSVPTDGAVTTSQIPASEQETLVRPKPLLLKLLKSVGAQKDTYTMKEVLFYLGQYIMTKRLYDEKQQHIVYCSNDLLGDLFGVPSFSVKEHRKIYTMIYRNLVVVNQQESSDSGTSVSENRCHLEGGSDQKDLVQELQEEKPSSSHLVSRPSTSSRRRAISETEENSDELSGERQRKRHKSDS

What is called IC50 is the concentration that gives 50% inhibition. With `COc1cc2c(cc1OC(C)C)[C@H](c1ccc(Cl)cc1)N(c1ccc(C(C)(O)C3CCN(C(N)=O)CC3)cc1)C(=O)C2` (stereo partly drawn) [Example 75, 4-(1-{4-[(S)-1-(4-Chloro-phenyl)-7-isopropoxy-6-methoxy-3-oxo-3,4-dihydro-1H-isoquinolin-2-yl]-phenyl}-1-hydroxy-ethyl)-piperidine-1-carboxylic acid amide], the IC50 in experiment [1] is 0.0043 µM; in experiment [2], 4.95 µM.
As to `COc1cc2c(cc1OC(C)C)[C@H](c1ccc(Cl)cc1)N(c1ccc(C(C)(O)C3CCN(CCC(F)(F)F)CC3)cc1)C(=O)C2` (some centres unmarked) [Example 86], the half-inhibitory concentration (IC50) in experiment [1] was found to be 0.0058 µM; in experiment [2] it was 6.45 µM.
For `COc1cc2c(cc1OC(C)C)[C@H](c1ccc(Cl)cc1)N(c1ccc(C(C)(O)C3CN(CCC(F)(F)F)C3)cc1)C(=O)C2` (stereo partly drawn) [Example 69, (S)-1-(4-Chloro-phenyl)-2-(4-{1-hydroxy-1-[1-(3,3,3-trifluoro-propyl)-azetidin-3-yl]-ethyl}-phenyl)-7-isopropoxy-6-methoxy-1,4-dihydro-2H-isoquinolin-3-one], the IC50 came out at 0.0363 µM in experiment [1] and 40.5 µM in experiment [2].
On the same counts, the results for `COc1cc2c(cc1OC(C)C)[C@H](c1ccc(Cl)cc1)N(c1ccc(C(C)(O)c3cccnc3)cc1)C(=O)C2` (stereo partly drawn) [Example 16, (S)-1-(4-Chloro-phenyl)-2-[4-(1-hydroxy-1-pyridin-3-yl-ethyl)-phenyl]-7-isopropoxy-6-methoxy-1,4-dihydro-2H-isoquinolin-3-one] are 0.0058 µM and 8.42 µM.
Consider `COc1cc2c(cc1OC(C)C)[C@H](c1ccc(Cl)cc1)N(c1ccc(C(C)(O)C3CCN(C(=O)OC(C)(C)C)CC3)cc1)C(=O)C2` (stereo partly drawn) [Example 42, 4-(1-{4-[(S)-1-(4-Chloro-phenyl)-7-isopropoxy-6-methoxy-3-oxo-3,4-dihydro-1H-isoquinolin-2-yl]-phenyl}-1-hydroxy-ethyl)-piperidine-1-carboxylic acid tert-butyl ester], for which the half-maximal inhibitory concentration (IC50) in experiment [1] was found to be 0.0091 µM; in experiment [2], 14.9 µM.
Turning to `COc1cc2c(cc1OC(C)C)[C@H](c1ccc(Cl)cc1)N(c1ccc([C@@](C)(O)C3CCC(F)(F)CC3)cc1)C(=O)C2` (single isomer, unassigned) [Example 47], the half-maximal inhibitory concentration (IC50) worked out at 0.005 µM in experiment [1] and 7.17 µM in experiment [2].
Consider `COc1cc2c(cc1OC(C)C)[C@H](c1ccc(Cl)cc1)N(c1ccc(C(C)(O)c3ccc(F)cc3)cc1)C(=O)C2` (stereo partly drawn) [Example 6, (S)-1-(4-Chloro-phenyl)-2-{4-[1-(4-fluoro-phenyl)-1-hydroxy-ethyl]-phenyl}-7-isopropoxy-6-methoxy-1,4-dihydro-2H-isoquinolin-3-one], for which the 50% inhibitory concentration (IC50) was found to be 0.0343 µM in experiment [1] and 61.8 µM in experiment [2].
The matching figures for `CC(C)Oc1cc2c(cc1OCC1COC1)CC(=O)N(c1ccc(C(C)(O)C3CCOCC3)cc1)[C@H]2c1ccc(Cl)cc1` (stereo partly drawn) [Example 147, (S)-1-(4-Chloro-phenyl)-2-{4-[1-hydroxy-1-(tetrahydro-pyran-4-yl)-ethyl]-phenyl}-7-isopropoxy-6-(oxetan-3-ylmethoxy)-1,4-dihydro-2H-isoquinolin-3-one]: 0.0086 µM and 3.05 µM.
Turning to `CCN1CC(C(C)(O)c2ccc(N3C(=O)Cc4cc(OC)c(OC(C)C)cc4[C@@H]3c3ccc(Cl)cc3)cc2)C1` (stereo partly drawn) [Example 71, (S)-1-(4-Chloro-phenyl)-2-{4-[1-(1-ethyl-azetidin-3-yl)-1-hydroxy-ethyl]-phenyl}-7-isopropoxy-6-methoxy-1,4-dihydro-2H-isoquinolin-3-one], the IC50 came to 0.026 µM in experiment [1] and 30.1 µM in experiment [2].
The matching figures for `COc1cc2c(cc1OC(C)C)[C@H](c1ccc(Cl)cc1)N(c1ccc(C(C)(O)C3CN(C(=O)OC(C)(C)C)C3)cc1)C(=O)C2` (stereo partly drawn) [Example 64, 3-(1-{4-[(S)-1-(4-Chloro-phenyl)-7-isopropoxy-6-methoxy-3-oxo-3,4-dihydro-1H-isoquinolin-2-yl]-phenyl}-1-hydroxy-ethyl)-azetidine-1-carboxylic acid tert-butyl ester]: 0.0072 µM and 10.6 µM.
With `COc1cc2c(cc1OC(C)C)[C@H](c1ccc(Cl)cc1)N(c1ccc(C(C)(O)C3CCNC(=O)C3)cc1)C(=O)C2` (stereo partly drawn) [Example 49, (S)-1-(4-Chloro-phenyl)-2-{4-[1-hydroxy-1-(2-oxo-piperidin-4-yl)-ethyl]-phenyl}-7-isopropoxy-6-methoxy-1,4-dihydro-2H-isoquinolin-3-one], the IC50 in experiment [1] was found to be 0.011 µM; in experiment [2], 8.07 µM.
As to `COc1cc2c(cc1OC(C)C)[C@H](c1ccc(Cl)cc1)N(c1ccc([C@](C)(O)C3CCN(C(C)=O)CC3)cc1)C(=O)C2` (single isomer, unassigned) [Example 54], the half-maximal inhibitory concentration (IC50) was 0.105 µM in experiment [1] and 36.7 µM in experiment [2].
For the compound `COc1cc2c(cc1OC(C)C)[C@H](c1ccc(Cl)cc1)N(c1ccc(C(C)(O)C3CCOCC3)cc1OC)C(=O)C2` (stereo partly drawn) [Example 36, (S)-1-(4-Chloro-phenyl)-2-{4-[1-hydroxy-1-(tetrahydro-pyran-4-yl)-ethyl]-2-methoxy-phenyl}-7-isopropoxy-6-methoxy-1,4-dihydro-2H-isoquinolin-3-one], the IC50 in experiment [1] worked out at 0.0051 µM; in experiment [2], 6.03 µM.
Turning to `COc1cc2c(cc1OC(C)C)[C@H](c1ccc(Cl)cc1)N(c1ccc(C(C)(O)C3CN(C4CCN(C)CC4)C3)cc1)C(=O)C2` (stereo partly drawn) [Example 101, (S)-1-(4-Chloro-phenyl)-2-(4-{1-hydroxy-1-[1-(1-methyl-piperidin-4-yl)-azetidin-3-yl]-ethyl}-phenyl)-7-isopropoxy-6-methoxy-1,4-dihydro-2H-isoquinolin-3-one], the concentration for half-maximal inhibition (IC50) in experiment [1] turned out to be 0.0085 µM; in experiment [2], 9.21 µM.
For `CNC(=O)N1CC(O)(c2ccc(N3C(=O)Cc4cc(OC)c(OC(C)C)cc4[C@@H]3c3ccc(Cl)cc3)cc2)C1` [Example 60, 3-{4-[(S)-1-(4-Chloro-phenyl)-7-isopropoxy-6-methoxy-3-oxo-3,4-dihydro-1H-isoquinolin-2-yl]-phenyl}-3-hydroxy-azetidine-1-carboxylic acid methylamide], the results for the IC50 in experiment [1] and in experiment [2] were 0.186 µM and 88.4 µM, respectively.
As to `COc1ccc(C(O)c2ccc(N3C(=O)Cc4cc(OC)c(OC(C)C)cc4[C@@H]3c3ccc(Cl)cc3)cc2)cc1` (stereo partly drawn) [Example 4, (S)-1-(4-Chloro-phenyl)-2-{4-[hydroxy-(4-methoxy-phenyl)-methyl]-phenyl}-7-isopropoxy-6-methoxy-1,4-dihydro-2H-isoquinolin-3-one], the values for the IC50 in experiment [1] and in experiment [2] were 0.0107 µM and 17.3 µM, respectively.
The matching figures for `COc1cc2c(cc1OC(C)C)[C@H](c1ccc(Cl)cc1)N(c1ccc([C@](C)(O)C3CCOCC3)cc1)C(=O)C2` (single isomer, unassigned) [Example 33]: 0.216 µM and 67.8 µM.
For `COc1cc2c(cc1OC(C)C)[C@H](c1ccc(Cl)cc1)N(c1ccc(C(C)(O)CNC(C)=O)cc1)C(=O)C2` (stereo partly drawn) [Example 29, N-(2-{4-[(S)-1-(4-Chloro-phenyl)-7-isopropoxy-6-methoxy-3-oxo-3,4-dihydro-1H-isoquinolin-2-yl]-phenyl}-2-hydroxy-propyl)-acetamide], the results for the half-inhibitory concentration (IC50) in experiment [1] and in experiment [2] were 0.143 µM and 39.7 µM, respectively.
As to `COc1cc2c(cc1OC(C)C)[C@H](c1ccc(Cl)cc1)N(c1ccc(C(C)(O)C3CCOCC3)cn1)C(=O)C2` (stereo partly drawn) [Example 37, (S)-1-(4-Chloro-phenyl)-2-{5-[1-hydroxy-1-(tetrahydro-pyran-4-yl)-ethyl]-pyridin-2-yl}-7-isopropoxy-6-methoxy-1,4-dihydro-2H-isoquinolin-3-one], the results for the IC50 in experiment [1] and in experiment [2] were 0.0117 µM and 13.8 µM, respectively.
The matching figures for `CC(C)Oc1cc2c(cc1OCC(=O)N(C)C)CC(=O)N(c1ccc(C(C)(O)C3CCOCC3)cc1)[C@H]2c1ccc(Cl)cc1` (stereo partly drawn) [Example 149, 2-((S)-1-(4-Chloro-phenyl)-2-{4-[1-hydroxy-1-(tetrahydro-pyran-4-yl)-ethyl]-phenyl}-7-isopropoxy-3-oxo-1,2,3,4-tetrahydro-isoquinolin-6-yloxy)-N,N-dimethyl-acetamide]: 0.0101 µM and 5.53 µM.
For `COc1cc2c(cc1OC(C)C)[C@H](c1ccc(Cl)cc1)N(c1ccc(C(C)(O)C3CCN(C)CC3)cc1)C(=O)C2` (mixture of isomers) [Example 34, (S)-1-(4-Chloro-phenyl)-2-{4-[1-hydroxy-1-(1-methyl-piperidin-4-yl)-ethyl]-phenyl}-7-isopropoxy-6-methoxy-1,4-dihydro-2H-isoquinolin-3-one], the IC50 in experiment [1] stood at 0.0051 µM; in experiment [2] it was 5.23 µM.
The matching figures for `COc1cc2c(cc1OC(C)C)[C@H](c1ccc(Cl)cc1)N(c1ccc(C3(O)CN(S(C)(=O)=O)C3)cc1)C(=O)C2` [Example 62, (S)-1-(4-Chloro-phenyl)-2-[4-(3-hydroxy-1-methanesulfonyl-azetidin-3-yl)-phenyl]-7-isopropoxy-6-methoxy-1,4-dihydro-2H-isoquinolin-3-one]: 0.342 µM and 77 µM.
